Measurements as given in patent US11414379B2, “SPAK kinase inhibitors as neuroprotective agents” (United States Government as represented by the Department …, priority 2018, dated 2022).

Experiments:
[1] = test system: pNKCC1; experiment: IVH-induced phosphorylation in rat choroid plexus, ICV delivery; type: in vivo; conditions: 48 hrs post-IVH, n=3
[2] = test system: Ang II-mediated hypertensive mice, pdMCAO; experiment: Neurological function tests in HTN mice after pdMCAO; type: in vivo, mouse; conditions: male HTN mice; 1-14 days post-pdMCAO
Protocol: Foot fault, cylinder test, and adhesive tape removal tests were used to assess pdMCAO-induced somatosensory and motor deficits in HTN mice in a blinded manner as described previously (Bhuiyan et al. (2017)J Cereb Blood Flow Metab. 37:2780-2794; Begum et al. (2018) Glia. 66).
Cylinder test: Mice are placed in a transparent cylinder (9 cm in diameter and 15 cm in height) for 10 min and all the forelimb movements of the mice will be recorded. Forepaw (left/right/both) usage on initial contact against the cylinder wall after rearing and during lateral exploration will be recorded. Prior to ischemic stroke, animals were placed in the cylinder for 5 min to establish a baseline symmetry profile.
Foot fault test: Each mouse will be placed on a stainless-steel grid floor (20 cm×40 cm with a mesh size of 4 cm^2) elevated 1 m above the floor. […] Data will be expressed as the number of foot fault errors made by the forelimbs contralateral to the injury hemisphere as a percentage of total steps.
Adhesive contact and removal tests: A piece of adhesive tape (4 mm×3 mm) will be attached to the contralateral forepaw with equal pressure by the experimenter in each trial. The time to make first contact with the tape and the time to remove the tape will be recorded as the contact time and the removal time, respectively. […]

[3] = target: DYRK2 (Homo sapiens, UniProt Q92630); experiment: Kinase panel (Dundee profiling); type: biochemical; conditions: read-out: % residual kinase activity
Summary of the method: (§1)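 Recombinant kinases; radioisotopic activity read-out; compound 10 μM and 1 μM; result = % residual activity vs DMSO, mean±SEM (n=3).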

[4] = target: PRAK (Homo sapiens, UniProt Q8IW41); experiment: Kinase panel (Dundee profiling); type: biochemical; conditions: read-out: % residual kinase activity
PRAK, sequence (Q8IW41 whole entry, species assumed): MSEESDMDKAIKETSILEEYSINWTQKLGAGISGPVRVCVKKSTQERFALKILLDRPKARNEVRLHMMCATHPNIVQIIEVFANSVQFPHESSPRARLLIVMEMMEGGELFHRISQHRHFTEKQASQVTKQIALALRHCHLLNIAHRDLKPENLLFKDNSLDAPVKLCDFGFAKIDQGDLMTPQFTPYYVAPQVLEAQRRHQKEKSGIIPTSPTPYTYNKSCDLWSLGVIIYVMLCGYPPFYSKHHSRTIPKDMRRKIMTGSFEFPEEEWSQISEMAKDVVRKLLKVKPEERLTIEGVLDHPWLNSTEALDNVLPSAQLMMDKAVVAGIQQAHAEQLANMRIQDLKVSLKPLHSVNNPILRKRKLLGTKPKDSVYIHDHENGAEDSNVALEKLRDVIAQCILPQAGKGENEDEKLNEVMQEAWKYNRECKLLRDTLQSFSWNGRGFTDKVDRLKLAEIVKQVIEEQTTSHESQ
Summary of the method: as §1

[5] = target: ASK1 (Homo sapiens, UniProt Q99683); experiment: Kinase panel (Dundee profiling); type: biochemical; conditions: read-out: % residual kinase activity
ASK1, sequence (Q99683 whole entry, species assumed): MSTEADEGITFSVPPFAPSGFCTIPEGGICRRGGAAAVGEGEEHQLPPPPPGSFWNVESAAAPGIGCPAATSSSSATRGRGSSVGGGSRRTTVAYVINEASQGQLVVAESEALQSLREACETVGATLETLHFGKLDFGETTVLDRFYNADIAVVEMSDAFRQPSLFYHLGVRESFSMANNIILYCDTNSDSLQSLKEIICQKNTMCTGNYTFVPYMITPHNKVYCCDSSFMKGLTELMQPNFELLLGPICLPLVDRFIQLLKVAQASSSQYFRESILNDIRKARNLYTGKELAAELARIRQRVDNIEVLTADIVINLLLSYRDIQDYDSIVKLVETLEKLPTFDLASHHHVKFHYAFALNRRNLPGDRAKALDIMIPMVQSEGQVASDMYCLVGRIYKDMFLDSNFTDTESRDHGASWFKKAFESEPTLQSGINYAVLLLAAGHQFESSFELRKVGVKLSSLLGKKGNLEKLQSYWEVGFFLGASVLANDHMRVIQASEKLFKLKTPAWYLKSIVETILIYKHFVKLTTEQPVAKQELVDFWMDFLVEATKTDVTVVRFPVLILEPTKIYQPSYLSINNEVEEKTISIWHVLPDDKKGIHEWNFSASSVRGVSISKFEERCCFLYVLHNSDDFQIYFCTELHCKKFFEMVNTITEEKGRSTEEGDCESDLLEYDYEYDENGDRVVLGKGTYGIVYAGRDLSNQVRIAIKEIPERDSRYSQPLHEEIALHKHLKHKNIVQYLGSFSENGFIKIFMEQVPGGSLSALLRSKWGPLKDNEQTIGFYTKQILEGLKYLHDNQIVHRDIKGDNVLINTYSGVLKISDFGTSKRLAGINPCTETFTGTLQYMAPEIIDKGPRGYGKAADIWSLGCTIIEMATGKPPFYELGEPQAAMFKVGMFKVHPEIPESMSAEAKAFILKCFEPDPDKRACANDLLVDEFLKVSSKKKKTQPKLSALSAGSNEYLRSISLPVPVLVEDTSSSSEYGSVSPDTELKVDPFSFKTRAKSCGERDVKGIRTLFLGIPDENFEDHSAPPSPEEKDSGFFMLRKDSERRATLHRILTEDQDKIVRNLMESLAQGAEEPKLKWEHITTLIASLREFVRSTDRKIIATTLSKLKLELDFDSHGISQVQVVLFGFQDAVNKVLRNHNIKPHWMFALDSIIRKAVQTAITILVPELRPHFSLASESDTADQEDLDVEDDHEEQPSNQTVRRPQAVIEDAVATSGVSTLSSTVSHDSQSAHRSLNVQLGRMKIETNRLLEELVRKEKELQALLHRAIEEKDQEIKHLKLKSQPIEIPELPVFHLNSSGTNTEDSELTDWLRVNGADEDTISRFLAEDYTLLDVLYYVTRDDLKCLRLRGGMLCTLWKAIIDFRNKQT
Summary of the method: as §1

[6] = target: ERK2 (Homo sapiens, UniProt P28482); experiment: Kinase panel (Dundee profiling); type: biochemical; conditions: read-out: % residual kinase activity
Summary of the method: as §1

[7] = target: p38g MAPK (Homo sapiens, UniProt P53778); experiment: Kinase panel (Dundee profiling); type: biochemical; conditions: read-out: % residual kinase activity
p38g MAPK, sequence (P53778 whole entry): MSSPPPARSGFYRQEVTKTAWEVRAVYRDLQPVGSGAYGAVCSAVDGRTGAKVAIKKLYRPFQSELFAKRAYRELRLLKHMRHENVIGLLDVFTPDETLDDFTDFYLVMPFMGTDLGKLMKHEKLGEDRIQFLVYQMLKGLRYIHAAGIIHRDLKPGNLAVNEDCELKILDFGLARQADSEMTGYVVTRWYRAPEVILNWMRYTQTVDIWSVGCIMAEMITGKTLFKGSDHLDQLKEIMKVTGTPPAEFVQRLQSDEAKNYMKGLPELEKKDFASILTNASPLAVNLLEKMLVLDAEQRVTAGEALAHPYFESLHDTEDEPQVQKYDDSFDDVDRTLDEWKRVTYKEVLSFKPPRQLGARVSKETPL
Summary of the method: as §1

[8] = target: MLK1 (Homo sapiens, UniProt P80192); experiment: Kinase panel (Dundee profiling); type: biochemical; conditions: read-out: % residual kinase activity
MLK1, sequence (P80192 whole entry, species assumed): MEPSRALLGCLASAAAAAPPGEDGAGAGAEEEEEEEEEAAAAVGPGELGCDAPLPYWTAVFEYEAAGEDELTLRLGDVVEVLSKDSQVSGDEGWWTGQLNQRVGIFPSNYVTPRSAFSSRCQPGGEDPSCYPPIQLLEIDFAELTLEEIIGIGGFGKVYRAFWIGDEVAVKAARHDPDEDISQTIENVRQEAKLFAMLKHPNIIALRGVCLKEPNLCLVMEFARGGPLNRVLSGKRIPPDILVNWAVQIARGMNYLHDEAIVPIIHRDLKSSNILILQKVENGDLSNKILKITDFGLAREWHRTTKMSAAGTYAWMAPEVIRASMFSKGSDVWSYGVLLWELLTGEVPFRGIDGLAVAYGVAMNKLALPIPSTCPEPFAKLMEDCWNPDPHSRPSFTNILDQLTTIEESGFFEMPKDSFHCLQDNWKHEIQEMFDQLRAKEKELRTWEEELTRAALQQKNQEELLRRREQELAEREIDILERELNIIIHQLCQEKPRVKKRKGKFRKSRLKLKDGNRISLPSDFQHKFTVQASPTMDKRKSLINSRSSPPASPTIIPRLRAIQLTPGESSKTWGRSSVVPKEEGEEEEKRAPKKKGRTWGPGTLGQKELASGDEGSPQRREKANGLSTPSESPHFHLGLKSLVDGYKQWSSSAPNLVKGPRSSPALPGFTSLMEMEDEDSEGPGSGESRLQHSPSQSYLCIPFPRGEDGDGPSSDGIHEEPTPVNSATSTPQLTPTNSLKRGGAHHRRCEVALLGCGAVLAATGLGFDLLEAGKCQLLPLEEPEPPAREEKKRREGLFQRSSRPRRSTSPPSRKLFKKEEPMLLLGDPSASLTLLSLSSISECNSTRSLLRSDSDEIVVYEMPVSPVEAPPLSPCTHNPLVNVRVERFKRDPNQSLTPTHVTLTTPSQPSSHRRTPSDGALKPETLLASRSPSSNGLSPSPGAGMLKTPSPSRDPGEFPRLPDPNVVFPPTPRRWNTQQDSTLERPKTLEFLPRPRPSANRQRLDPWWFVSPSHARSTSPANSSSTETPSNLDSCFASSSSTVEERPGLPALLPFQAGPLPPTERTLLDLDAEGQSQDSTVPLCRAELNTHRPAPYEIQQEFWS
Summary of the method: as §1

[9] = target: PKCγ (Homo sapiens, UniProt P05129); experiment: Kinase panel (Dundee profiling); type: biochemical; conditions: read-out: % residual kinase activity
Summary of the method: as §1

[10] = target: ERK8 (Homo sapiens, UniProt Q8TD08); experiment: Kinase panel (Dundee profiling); type: biochemical; conditions: read-out: % residual kinase activity
ERK8, sequence (Q8TD08 whole entry, species assumed): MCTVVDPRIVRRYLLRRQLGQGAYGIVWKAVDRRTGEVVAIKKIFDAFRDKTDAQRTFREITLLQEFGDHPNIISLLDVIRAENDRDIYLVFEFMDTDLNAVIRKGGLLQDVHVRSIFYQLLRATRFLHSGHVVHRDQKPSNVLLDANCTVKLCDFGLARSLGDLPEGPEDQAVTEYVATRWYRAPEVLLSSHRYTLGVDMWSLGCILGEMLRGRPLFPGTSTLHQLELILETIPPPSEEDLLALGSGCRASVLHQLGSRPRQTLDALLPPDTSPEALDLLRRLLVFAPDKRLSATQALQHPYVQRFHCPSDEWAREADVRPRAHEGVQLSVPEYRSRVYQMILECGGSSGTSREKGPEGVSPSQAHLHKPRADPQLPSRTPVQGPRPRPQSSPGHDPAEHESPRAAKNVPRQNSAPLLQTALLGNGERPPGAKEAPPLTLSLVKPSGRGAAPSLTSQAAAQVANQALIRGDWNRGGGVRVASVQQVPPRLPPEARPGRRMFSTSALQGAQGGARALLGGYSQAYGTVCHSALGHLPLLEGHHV
Summary of the method: as §1

[11] = target: PAK5 (Homo sapiens, UniProt Q9P286); experiment: Kinase panel (Dundee profiling); type: biochemical; conditions: read-out: % residual kinase activity
Summary of the method: as §1

[12] = target: CHK2 (Homo sapiens, UniProt O96017); experiment: Kinase panel (Dundee profiling); type: biochemical; conditions: read-out: % residual kinase activity
Summary of the method: as §1

[13] = target: PIM3 (Homo sapiens, UniProt Q86V86); experiment: Kinase panel (Dundee profiling); type: biochemical; conditions: read-out: % residual kinase activity
Summary of the method: as §1

[14] = test system: mouse model of ischemic stroke; experiment: Ex vivo MRI (T2WI, DTI) 7 days post-stroke; type: in vivo; conditions: p>0.05
Protocol: For ex-vivo MRI, brains were maintained within the skull to avoid anatomical deformation. After overnight post-fixation in 4% PFA, heads were stored in PBS solution at 4° C. […] was performed at 500 MHz using a Bruker AV3HD 11.7 T/89 mm vertical bore small animal MRI scanner, equipped with a 25-mm quadrature RF coil and Paravision 6.0 (Bruker Biospin, Billerica, Mass.).
In a blinded manner, region of interests (ROIs) were manually drawn for the ipsilateral (IL) and contralateral (CL) cortex, striatum, corpus callosum (CC), and external capsule (EC). Values for the fractional anisotropy (FA), […] diffusion coefficient (ADC), and diffusivity were calculated for the entire volume of each ROI.
Referring to FIG. 15A, representative T2WI images and quantitative analyses of lesion volume and atrophy (shrinkage) of ex vivo brains from vehicle (Veh) control and ZT-1a-treated mice at 7 days post-MCAO are shown. […]
Referring to FIG. 15B, representative images of directionally encoded color (DEC) and fractional anisotropy (FA) maps are shown. […] Bar graphs display quantitation of mean values of FA, mean diffusivity (MD), axial diffusivity (AD) and radial diffusivity (RD) of white matter tissues (CC or EC) of ex vivo brain from vehicle control (Veh) and ZT-1a-treated mice at 7 days post-MCAO. […]

Cc1cc(C(C#N)c2ccc(Cl)cc2)c(Cl)cc1NC(=O)c1cc(Cl)ccc1O (stereo not shown) [ZT-1a, 5-chloro-N-(5-chloro-4-((4-chlorophenyl)(cyano)methyl)-2-methylphenyl)-2-hydroxy-benzamide]
reduction of IVH-induced expression of pNKCC1 [1]: 69±4.3% | foot fault, cylinder and adhesive tape removal tests [2]: less foot faults, less unilateral turns and better performance in adhesive tape removal | remaining activity at 1 µM ([3]; 1 μM): 111 ± 15% | remaining activity at 10 µM ([3]; 10 μM): 97 ± 10% | remaining activity at 1 µM ([4]; 1 μM): 78 ± 13% | remaining activity at 10 µM ([4]; 10 μM): 41 ± 7% | remaining activity at 1 µM ([5]; 1 μM): 101 ± 3% | remaining activity at 10 µM ([5]; 10 μM): 100 ± 11% | remaining activity at 1 µM ([6]; 1 μM): 111 ± 25% | remaining activity at 10 µM ([6]; 10 μM): 75 ± 3% | remaining activity at 1 µM ([7]; 1 μM): 100 ± 11% | remaining activity at 10 µM ([7]; 10 μM): 100 ± 6% | remaining activity at 1 µM ([8]; 1 μM): 94 ± 4% | remaining activity at 10 µM ([8]; 10 μM): 81 ± 21% | remaining activity at 1 µM ([9]; 1 μM): 133 ± 11% | remaining activity at 10 µM ([9]; 10 μM): 120 ± 8% | remaining activity at 1 µM ([10]; 1 μM): 104 ± 11% | remaining activity at 10 µM ([10]; 10 μM): 63 ± 3% | remaining activity at 1 µM ([11]; 1 μM): 93 ± 26% | remaining activity at 10 µM ([11]; 10 μM): 93 ± 4% | remaining activity at 1 µM ([12]; 1 μM): 106 ± 1% | remaining activity at 10 µM ([12]; 10 μM): 68 ± 6% | remaining activity at 1 µM ([13]; 1 μM): 115 ± 12% | remaining activity at 10 µM ([13]; 10 μM): 99 ± 2% | EC tract FA values in the IL hemisphere [14]: did not change
